In brackets after ≈: the same amount, converted by molar mass. Read-outs that look alike come from different tables or passages of the source.
Tests used:
Type in all cases: cell-based
P. falciparum = test: In vitro antimalarial activity / SAR data, clone not stated; conditions: 24 versus 52
From the text: (§1) The analogs have been segregated arbitrarily here into those compounds in which the tetracyclic skeleton is intact (Table 2) and various ring-cleaved analogs (Table 3). The activities of the conventional malaria therapeutics chloroquine, mefloquine, and pyrimethamine is included for comparison.

P. falciparum W-2 clone = test: In vitro antimalarial activity, P. falciparum W-2 clone; conditions: for IC50: Plasmodium falciparum; for times as potent as QHS against the W-2 clone: relative to QHS
From the text: as §1

P. falciparum D-6 clone = test: In vitro antimalarial activity, P. falciparum D-6 clone; conditions: for IC50: Plasmodium falciparum; for times as potent as QHS against the D-6 clone: relative to QHS
From the text: as §1

[1] = Table 2, W-2 clone, drug-resistant strains of P. falciparum, read-out: IC50 W-2 clone
[2] = Table 2, W-2 clone, drawing 57 (artemisinin) = 100
[3] = Table 2, D-6 clone, drug-resistant strains of P. falciparum, read-out: IC50 D-6 clone
[4] = Table 2, D-6 clone, drawing 57 (artemisinin) = 100
[5] = Table 3, tricyclic analogs, W-2 clone, read-out: In vitro IC50 W-2 clone
[6] = Table 3, tricyclic analogs, W-2 clone
[7] = Table 3, tricyclic analogs, D-6 clone, read-out: In vitro IC50 D-6 clone
[8] = Table 3, tricyclic analogs, D-6 clone

| Compound | IC50 (P. falciparum W-2 clone; [1]) [ng/mL] | Relative potency (W-2 clone) (P. falciparum W-2 clone; [2]) | IC50 (P. falciparum D-6 clone; [3]) [ng/mL] | Relative potency (D-6 clone) (P. falciparum D-6 clone; [4]) | further results |
| --- | --- | --- | --- | --- | --- |
| CCC1(CC)OO[C@]23CCCC[C@H]2[C@@H](C)C(=O)O[C@@H]3O1 (relative stereo) [compound 52] | – | – | – | – | activity change by additional alkyl groups in the vicinity of the peroxy group (P. falciparum): reduced activity substantially |
| C[C@@]12CC[C@H]3CCC[C@H]4CC(=O)O[C@H](O1)[C@@]34OO2 (relative stereo) [compound 4580, (±)-6,9-desmethylartemisinin] | 3.92 (≈ 15.4 nM) | 48 | 33.7 (≈ 133 nM) | 12 | – |
| CCC1(CC)OO[C@]23CCCC[C@H]2[C@@H](C)C(=O)O[C@@H]3O1 (relative stereo) [compound 4583] | – | – | – | – | IC50 (P. falciparum W-2 clone; [5]): 74.2 ng/mL (≈ 261 nM); Relative potency (W-2 clone) (P. falciparum W-2 clone; [6]): 3; IC50 (P. falciparum D-6 clone; [7]): 29.7 ng/mL (≈ 105 nM); Relative potency (D-6 clone) (P. falciparum D-6 clone; [8]): 15 |
| O=C1C[C@@H]2CCC[C@@H]3C[C@H]4OO[C@]32[C@H](O1)O4 (relative stereo) [compound 4589, Octahydro-3,11-epoxy-11H-pyrano[4.3-j]-1,2-benzodioxan-9(3H) -one] | 88.7 (≈ 392 nM) | 2 | 129 (≈ 572 nM) | 2 | – |
| CCCC[C@H]1C(=O)O[C@@H]2OC(C)(C)OO[C@@]23CCCC[C@@H]13 (relative stereo) [compound 4590, 7-Butyl-3,3-dimethyl-4aH,6H-hexahydro-1,2,4-trioxino[6.5-j] benzopyran-6-one] | – | – | – | – | IC50 (P. falciparum W-2 clone; [5]): 11.8 ng/mL (≈ 39.5 nM); Relative potency (W-2 clone) (P. falciparum W-2 clone; [6]): 7; IC50 (P. falciparum D-6 clone; [7]): 13.9 ng/mL (≈ 46.8 nM); Relative potency (D-6 clone) (P. falciparum D-6 clone; [8]): 5 |
| CC1(C)OO[C@]23CCCC[C@H]2CC(=O)O[C@@H]3O1 (relative stereo) [compound 4593, (±)-Hexahydro-3,3-dimethyl-4aH,6H-1,2,4-trioxino-[6.5-j][2] benzopyran-6-one] | – | – | – | – | IC50 (P. falciparum W-2 clone; [5]): 178 ng/mL (≈ 735 nM); Relative potency (W-2 clone) (P. falciparum W-2 clone; [6]): 0.5; IC50 (P. falciparum D-6 clone; [7]): 189 ng/mL (≈ 779 nM); Relative potency (D-6 clone) (P. falciparum D-6 clone; [8]): 0.4 |
| C[C@@H]1CC[C@H]2[C@@H](C)C(=O)O[C@@H]3O[C@@]4(C)CC[C@@H]1[C@]32OO4 [(+)-Artemisinin, reference compound] | 2.11 (≈ 7.47 nM) | 100 | 4.44 (≈ 15.7 nM) | 100 | – |
| CCN(CC)CCCC(C)Nc1ccnc2cc(Cl)ccc12 (stereo not shown) [Chloroquine, reference compound] | – | 7 | – | 83 | IC50 (P. falciparum W-2 clone; read-out: IC50 W-2 clone): 31.7 ng/mL (≈ 99.1 nM); IC50 (P. falciparum D-6 clone; read-out: IC50 D-6 clone): 5.33 ng/mL (≈ 16.7 nM) |
| OC(c1cc(C(F)(F)F)nc2c(C(F)(F)F)cccc12)C1CCCCN1 (stereo not shown) [Mefloquine, reference compound] | 2.4 (≈ 6.34 nM) | 88 | 43.7 (≈ 116 nM) | 10 | – |
| C[C@@H]1CC[C@H]2C(C)(C)C(=O)O[C@@H]3O[C@@]4(C)CC[C@@H]1[C@]32OO4 [compound 2800, (+)-Octahydro-3,12-epoxy-3,6,9,9-tetramethyl-12H-pyrano [4.3-j]-1,2-benzo dioxepin-10(3H)-one] | 25.5 (≈ 86.1 nM) | 0.63 | 20.9 (≈ 70.5 nM) | 2.1 | – |
| C[C@@H]1CC[C@H]2CC(=O)N(Cc3ccccc3)[C@@H]3O[C@@]4(C)CC[C@@H]1[C@@]23OO4 [compound 2803] | 0.07 (≈ 0.196 nM) | 171 | 0.45 (≈ 1.26 nM) | 149 | – |
| C[C@@H]1CC[C@H]2CC(=O)N(CC(=O)O)[C@@H]3O[C@@]4(C)CC[C@@H]1[C@@]23OO4 [compound 2804] | – | – | 122 (≈ 376 nM) | 5.5 | – |
| C[C@@H]1CC[C@H]2[C@@H](C)C(=O)O[C@@H]3OC(C)(C)OO[C@@]32C1 [compound 2816] | – | – | – | – | IC50 (P. falciparum W-2 clone; [5]): 1.46 ng/mL (≈ 5.4 nM); Relative potency (W-2 clone) (P. falciparum W-2 clone; [6]): 75; IC50 (P. falciparum D-6 clone; [7]): 1.29 ng/mL (≈ 4.77 nM); Relative potency (D-6 clone) (P. falciparum D-6 clone; [8]): 108 |
| CCCCCC[C@H]1C(=O)O[C@@H]2O[C@@]3(C)CC[C@H]4[C@H](C)CC[C@@H]1[C@@]24OO3 [compound 2817] | 0.02 (≈ 0.0567 nM) | 550 | 0.03 (≈ 0.0851 nM) | 467 | – |
| CCCCCCCCCCCCCC[C@H]1C(=O)O[C@@H]2O[C@@]3(C)CC[C@H]4[C@H](C)CC[C@@H]1[C@@]24OO3 [compound 2818] | 63.9 (≈ 138 nM) | .0017 | 81.3 (≈ 175 nM) | .0017 | – |
| CC(C)[C@H]1C(=O)O[C@@H]2O[C@@]3(C)CC[C@H]4[C@H](C)CC[C@@H]1[C@@]24OO3 [compound 2820] | 0.58 (≈ 1.87 nM) | 84 | 0.27 (≈ 0.87 nM) | 203 | – |
| C[C@@H]1CC[C@H]2[C@@H](CCCc3ccccc3)C(=O)O[C@@H]3O[C@@]4(C)CC[C@@H]1[C@]32OO4 [compound 2821] | 0.11 (≈ 0.285 nM) | 445 | 0.09 (≈ 0.233 nM) | 611 | – |

| Compound | IC50 (P. falciparum W-2 clone; [1]) [ng/mL] | Relative potency (W-2 clone) (P. falciparum W-2 clone; [2]) | IC50 (P. falciparum D-6 clone; [3]) [ng/mL] | Relative potency (D-6 clone) (P. falciparum D-6 clone; [4]) | further results |
| --- | --- | --- | --- | --- | --- |
| CC(C)CC[C@H]1C(=O)O[C@@H]2O[C@@]3(C)CC[C@H]4[C@H](C)CC[C@@H]1[C@@]24OO3 [compound 2822] | 0.5 (≈ 1.48 nM) | 98 | 0.35 (≈ 1.03 nM) | 157 | – |
| C[C@@H]1CCC[C@@]23CO[C@@](C)(CC[C@@H]12)OO3 [compound 2823] | – | – | – | – | IC50 (P. falciparum D-6 clone; [7]): 0.8 ng/mL (≈ 3.77 nM); Relative potency (D-6 clone) (P. falciparum D-6 clone; [8]): 37 |
| CC1C(=O)OC(O[Si](C)(C)C(C)(C)C)C2(OO)CCCCC12 (stereo not shown) [compound 4581] | – | – | – | – | IC50 (P. falciparum W-2 clone; read-out: In vitro IC50 W-2 clone): 2890 ng/mL (≈ 8750 nM); Relative potency (W-2 clone) (P. falciparum W-2 clone; [6]): 0; IC50 (P. falciparum D-6 clone; read-out: In vitro IC50 D-6 clone): 3020 ng/mL (≈ 9130 nM); Relative potency (D-6 clone) (P. falciparum D-6 clone; [8]): 0 |
| C[C@@H]1CC[C@H]2CC(=O)O[C@@H]3O[C@@]4(C)CC[C@@H]1[C@@]23OO4 [compound 4584] | 0.31 (≈ 1.16 nM) | 650 | 2.32 (≈ 8.65 nM) | 180 | – |
| C[C@@H]1CC[C@H]2CC(=O)N(C)[C@@H]3O[C@@]4(C)CC[C@@H]1[C@@]23OO4 [compound 4585, (-)-Octahydro-3,6,11-trimethyl-3,12-epoxy-12H-pyridino-[4.3-j] 1,2-benzo dioxepin-10(3H)-one] | 0.42 (≈ 1.49 nM) | 502 | 2.05 (≈ 7.29 nM) | 214 | times as potent as QHS against the W-2 clone (P. falciparum W-2 clone; W-2 clone): 5 times; times as potent as QHS against the D-6 clone (P. falciparum D-6 clone; D-6 clone): 21.7 times |
| CC[C@H]1C(=O)O[C@@H]2O[C@@]3(C)CC[C@H]4[C@H](C)CC[C@@H]1[C@@]24OO3 [compound 4586] | 0.18 (≈ 0.607 nM) | 1226 | 0.72 (≈ 2.43 nM) | 642 | times as potent as QHS against the W-2 clone (P. falciparum W-2 clone; W-2 clone): 11.7 times; times as potent as QHS against the D-6 clone (P. falciparum D-6 clone; D-6 clone): 6.17 times |
| C[C@H]1[C@@H](OOC(C)(C)C)O[C@@H]2O[C@@]3(C)CC[C@H]4[C@H](C)CC[C@@H]1[C@@]24OO3 [compound 4588] | 0.41 (≈ 1.15 nM) | 656 | 0.53 (≈ 1.49 nM) | 1054 | – |
| C[C@@H]1CC[C@H]2[C@@H](CC(=O)O)C(=O)O[C@@H]3O[C@@]4(C)CC[C@@H]1[C@]32OO4 [compound 4595] | 151 (≈ 463 nM) | 0.3 | 830 (≈ 2540 nM) | 0.15 | – |
| CCC(=O)OCC(CC)(CC)OOC(C)(C)C [compound 4596, 2-t-Butylperoxy-2-ethylbutyl proprionate] | – | – | – | – | In vitro IC50 W-2 clone (P. falciparum W-2 clone; [6]): Inactive; In vitro IC50 D-6 clone (P. falciparum D-6 clone; [8]): Inactive |
| CCCC(=O)OCC(CC)(CC)OOC(C)(C)C [compound 4597, 2-t-Butylperoxy-2-ethylbutyl Butyrate] | – | – | – | – | In vitro IC50 W-2 clone (P. falciparum W-2 clone; [6]): Inactive; In vitro IC50 D-6 clone (P. falciparum D-6 clone; [8]): Inactive |
| CCO[C@H]1O[C@@H]2O[C@@]3(C)CC[C@H]4[C@H](C)CC[C@@H]([C@H]1CC)[C@@]24OO3 [compound 4598] | 0.18 (≈ 0.551 nM) | 272 | 0.22 (≈ 0.674 nM) | 550 | – |
| CCC[C@H]1C(=O)O[C@@H]2O[C@@]3(C)CC[C@H]4[C@H](C)CC[C@@H]1[C@@]24OO3 [compound 4599] | 0.04 (≈ 0.129 nM) | 1225 | 0.22 (≈ 0.709 nM) | 550 | – |
| CCC[C@H]1[C@@H](OCC)O[C@@H]2O[C@@]3(C)CC[C@H]4[C@H](C)CC[C@@H]1[C@@]24OO3 [compound 4600, (+)-Octahydro-3,6-dimethyl-10β-ethoxy-3,12-epoxy-9β-propyl-12H-pyrano[4.3-j]-1,2-benzodioxepine] | 0.63 (≈ 1.85 nM) | 76 | 0.39 (≈ 1.15 nM) | 120 | – |
| CCc1nc(N)nc(N)c1-c1ccc(Cl)cc1 [pyrimethamine, reference compound] | 121 (≈ 486 nM) | 2 | 0.35 (≈ 1.41 nM) | 1269 | – |
| (+)-Hexahydro-3,3,7,10α,11β-pentamethyl-4aH,6H-1,2,4-trioxino-[ 6.5-j][2] benzopyran-6-one [compound 4594] | – | – | – | – | In vitro IC50 W-2 clone (P. falciparum W-2 clone; [6]): 2.06 ng/mL; Relative potency (W-2 clone) (P. falciparum W-2 clone; [6]): 24; In vitro IC50 D-6 clone (P. falciparum D-6 clone; [8]): 5.35 ng/mL; Relative potency (D-6 clone) (P. falciparum D-6 clone; [8]): 23 |
| (-)-4ab,7a,7aa,10β-Hexahydro-3,3,7β,10a-tetramethyl-4aH,6H-trioxino[6.5-j][2]-benzopyran-6-one [compound 4591] | – | – | – | – | In vitro IC50 W-2 clone (P. falciparum W-2 clone; [6]): 9.71 ng/mL; Relative potency (W-2 clone) (P. falciparum W-2 clone; [6]): 9; In vitro IC50 D-6 clone (P. falciparum D-6 clone; [8]): 9.65 ng/mL; Relative potency (D-6 clone) (P. falciparum D-6 clone; [8]): 8 |
| (-)-Hexahydro-3,3,10a,11β-tetramethyl-4aH,6H-1,2,4-trioxino-[6.5-j]benzopyran-6-one [compound 4592] | – | – | – | – | In vitro IC50 D-6 clone (P. falciparum D-6 clone; [8]): 1.28 ng/mL; Relative potency (D-6 clone) (P. falciparum D-6 clone; [8]): 58 |
